Where a SMILES comes first, the peptide text is derived from it. Where no end group is shown, it is not given here. [ ]: non-standard residue; d: D form. Cit = NC(=O)NCCC[C@H](N)C(=O)O

The results in this text go back to US20250269000A1, “ANTI-TUMOUR RESPONSES TO CYTOKERATINS” (SCANCELL LIMITED, priority 2020, published 2025).

For data set [1], the system named is B16 HHDII/iDP4 tumour cells. Description: Tumour challenge, B16 HHDII/iDP4 in HHDII/DP4 mice. The data set is classed as in vivo. Conditions: immunised tumour bearing HHDII/DP4 mice. From the text:
HHDII/DP4 mice were challenged with B16 tumour with IFNγ inducible DP4. Four days later the HHDII/DP4 mice were immunised with Cyk8 371-388 cit or Cyk8 371-388 wt peptide on days 4, 11 and 18. Overall survival (A), tumour volume (B) at day 29 and tumour volume throughout the study (C), post tumour implant are shown for unimmunised control mice and mice immunised with either Cyk8 371-388 cit peptide or Cyk8 371-388 wt peptide. Statistical differences between immunised and control mice were determined by Mantel-Cox test, p values are shown. The tumour volume medians and p values are shown as determined by Mann Whitney U test, n=10 in all group.
HHDII/DP4 mice were challenged with B16 tumour with IFNγ inducible DP4. Four days later the HHDII/DP4 mice were immunised with Cyk8 371-388 cit peptide on days 4, 11 and 18. Overall survival (A), tumour volume (B) at day 24 and tumour volume throughout the study (C), post tumour implant are shown for unimmunised control mice and mice immunised with Cyk8 101-120 cit peptide. Statistical differences between immunised and control mice were determined by Mantel-Cox test, p values are shown. The tumour volume medians and p values are shown as determined by Mann Whitney U test, n=10 in all group.
For tumour challenge experiments, mice were challenged with 1×10^5 B16 HHDII/iDP4 cells subcutaneously on the right flank […] before primary immunisation (unless stated otherwise) and then immunised as described above. Tumour growth was monitored at 3-4 days intervals and mice humanely euthanised once tumour reached ≥10 mm in diameter.
The effect of immunisation with Cyk8 371-388 (cit and wt) on the growth of the mouse B16 melanoma cell line transfected with IFNγ inducible human DP4 (iDP4) was assessed in HHDII/DP4 transgenic mice (FIG. 9A). […]
The effect of immunisation with Cyk8 101-120 cit on the growth of the mouse B16 melanoma cell line transfected with IFNγ inducible human DP4 (iDP4) was assessed in HHDII/DP4 transgenic mice (FIG. 10A). […]

Data set [2] deals with HHDII/DP4 transgenic mice. In words: Ex vivo IFNγ ELISpot on splenocytes of peptide-immunised HHDII/DP4 mice. The data set is classed as in vivo, mouse. Conditions: for IFNγ responses detected in immunised mice: 25 μg peptide s.c. with CpG/MPLA once a week for three weeks, ELISpot 7 days after third immunisation. As to the method:
The HHDII/HLA-DP4 transgenic strain of mouse as described in patent WO2013/017545 A1 (EMMA repository, France) and C57BL/6 mice (Charles River, UK) were used, aged between 8 and 12 weeks, and cared for by the staff at Nottingham Trent University. All work was carried out under a Home Office project licence. Peptides were dissolved in 10% dimethylformamide to 1 mg/mL and then emulsified (a series of dilutions) with the adjuvant CpG and MPLA 6 μg/mouse of each (Invivogen, UK). Peptides (25 μg/mouse) were injected subcutaneously at the base of the tail.
ELISpot assays were performed using murine IFNγ capture and detection reagents according to the manufacturer's instructions (Mabtech, Sweden). In brief, anti-IFNγ antibody was coated onto wells of a 96-well Immobilin-P plate. Synthetic peptides (at a variety of concentrations) and 5×10^5 per well splenocytes were added to the wells of the plate in triplicate. LPS at 5 μg/mL was used as a positive control. Peptide pulsed target cells were added where relevant at 5×10^4 per well in triplicate and plates incubated for 40 hours at 37° C. After incubation, captured IFNγ was detected by a biotinylated anti-IFNγ antibody and developed with a streptavidin alkaline phosphatase and chromogenic substrate. Lipopolysaccharide (LPS; 5 μg/mL) was used as a positive control. For blocking studies, anti-CD4 blocking antibody (RPA-T4) and anti-CD8 blocking antibody (2.43) from Bioxcell were used at 20 μg/mL. Spots were analysed and counted using an automated plate reader (Cellular Technologies Ltd).
HHDII/DP4 and C57BL/6 mice were immunised with human citrullinated peptides in combination with CpG/MPLA as an adjuvant. 25 μg of peptide was administered subcutaneously as a single immunisation given once a week for three weeks Mice were culled 7 days after the third immunisation, the immune response to each peptide was assessed by ex vivo IFNγ ELISpot (FIG. 2). We have previously shown that citrullinated peptides can induce responses in the transgenic DR4 mouse strain. Given that different mouse strains have different MHC repertoires, the transgenic strain HHDII/DP4 and non-transgenic C57BL/6 mice were used for screening.
To determine if the immune response to the Cyk8 peptides is specific to the citrullinated peptide and not the wild type (wt) version, HHDII/DP4 transgenic mice were immunised with Cyk8 101-120 cit, 133-151 cit, 217-236 cit, 371-388 cit, 381-399 cit or Cyk8 101 wt, 133-151 wt, 371-388 wt peptides. HHDII/DP4 mice received 25 μg peptide with CpG/MPLA subcutaneously once a week for three weeks. Mice were culled 7 days after the third immunisation, the immune response to each peptide was assessed by ex vivo ELISpot (FIGS. 3A and 3B).
To determine whether the response to Cyk8 8-26 cit, Cyk8 101-120 cit, Cyk8 133-151 cit, Cyk8 371-388 cit, Cyk8 381-399 cit is CD4 dependent HHDII/DP4 transgenic mice and C57BL/6 mice received 25 μg peptide subcutaneously in combination with CpG/MPLA as an adjuvant, once a week for three weeks (FIG. 6A HHDII/DP4, FIG. 6B C57BL/6). Mice were culled 7 days after the third immunisation, an ELISpot assay was performed in the presence of an anti CD4 or CD8 antibody. […]

[3] abbreviates: HHDII/DP4, blocking antibody 20 μg/mL.

As for `CC[C@H](C)[C@H](NC(=O)[C@H](Cc1ccccc1)NC(=O)[C@H](CO)NC(=O)[C@H](C)NC(=O)[C@H](Cc1ccccc1)NC(=O)[C@@H](N)CCCCN)C(=O)N[C@@H](CC(=O)O)C(=O)N[C@@H](CCCCN)C(=O)N[C@H](C(=O)N[C@@H](CCCNC(N)=O)C(=O)N[C@@H](Cc1ccccc1)C(=O)N[C@@H](CC(C)C)C(=O)N[C@@H](CCC(=O)O)C(=O)N[C@@H](CCC(N)=O)C(=O)N[C@@H](CCC(N)=O)C(=O)N[C@@H](CC(N)=O)C(=O)N[C@@H](CCCCN)C(=O)N[C@@H](CCSC)C(=O)N[C@@H](CC(C)C)C(=O)N[C@@H](CCC(=O)O)C(=O)O)C(C)C` [Cyk8 101-120 cit, KFASFIDKV-cit-FLEQQNKMLE] (H-KFASFIDKV[Cit]FLEQQNKMLE-OH), in data set [1], the associated toxicity result was “no associated toxicity”.
Take `CC[C@H](C)[C@H](NC(=O)[C@H](CCC(=O)O)NC(=O)[C@@H](NC(=O)[C@H](CC(=O)O)NC(=O)[C@H](CC(C)C)NC(=O)[C@H](C)NC(=O)[C@H](CC(C)C)NC(=O)[C@H](CCCCN)NC(=O)[C@@H](NC(=O)[C@H](CC(N)=O)NC(=O)[C@H](CCSC)NC(=O)[C@H](CC(C)C)NC(=O)[C@H](CCC(=O)O)NC(=O)[C@H](CCC(N)=O)NC(=O)[C@H](Cc1ccc(O)cc1)NC(=O)[C@H](CCC(=O)O)NC(=O)[C@H](CCCNC(N)=O)NC(=O)[C@@H](N)CC(C)C)C(C)C)[C@@H](C)CC)C(=O)O` [Cyk8 371-388 cit, L-cit-EYQELMNVKLALDIEI] (H-L[Cit]EYQELMNVKLALDIEI-OH): in data set [1], the associated toxicity result is “no associated toxicity”.
Consider `CC[C@H](C)[C@H](NC(=O)[C@H](CCC(=O)O)NC(=O)[C@@H](NC(=O)[C@H](CC(=O)O)NC(=O)[C@H](CC(C)C)NC(=O)[C@H](C)NC(=O)[C@H](CC(C)C)NC(=O)[C@H](CCCCN)NC(=O)[C@@H](NC(=O)[C@H](CC(N)=O)NC(=O)[C@H](CCSC)NC(=O)[C@H](CC(C)C)NC(=O)[C@H](CCC(=O)O)NC(=O)[C@H](CCC(N)=O)NC(=O)[C@H](Cc1ccc(O)cc1)NC(=O)[C@H](CCC(=O)O)NC(=O)[C@H](CCCNC(=N)N)NC(=O)[C@@H](N)CC(C)C)C(C)C)[C@@H](C)CC)C(=O)O` [Cyk8 371-388 wt, LREYQELMNVKLALDIEI, reference compound] (H-LREYQELMNVKLALDIEI-OH), for which the associated toxicity entry in data set [1] was “no associated toxicity”.
With “KFASFIDKVRFLEQQNKMLE (listed as Homo sapiens) [Cyk8 101-120 wt, wild type (unmodified) Cyk8 101-120 peptide, reference compound]”, the “IFNγ responses detected in immunised mice” value (“IFNγ responses detected” below) in data set [2] is “Low to moderate”.
As to “KLALDIEIATY-cit-KLLEGEE (KLALDIEIATY[Cit]KLLEGEE) [Cyk8 381-399 cit, Cyk8 381-399, citrullinated at position 392]”, in data set [2], the “IFNγ responses detected” value is listed as “Moderate to high”. In data set [2] (setting [3]), the “IFNγ response in the presence of the CD8 antibody” value is “significantly reduced” and the “IFNγ response in the presence of the anti CD4 antibody” value is “significantly reduced”. In addition, the “cross-reactivity of the response to the wt version” value in data set [2] (HHDII/DP4 mice immunised with cit peptide) is “no cross-reactivity”. The “IFNγ response to citrullinated peptide compared to media only” value in data set [2] (screening, HHDII/DP4 mice, 25 μg peptide with CpG/MPLA weekly for three weeks) is listed as “significant immune responses”. In addition, in data set [2] (summary statement), the “T cell responses in HLA-DP4 transgenic mice” value is recorded as “potent T cell responses” and the “reactivity to the unmodified wildtype sequence” value is listed as “minimal reactivity”.
On to “RSNMDNMFESYINNLRRQL (listed as Homo sapiens) [Cyk8 131-15 wt, wild type (unmodified) Cyk8 133-151 peptide, reference compound]”, for which the “IFNγ responses detected” value in data set [2] was “Low to moderate”.
